{"source": "patent US7960420B2", "about": "“Diazonamide analogs with improved solubility” (Joyant Pharmaceuticals, Inc, priority 2007, dated 2011)", "key": {"[1]": {"system": "HCC461 human NSCLC xenograft", "assay": "HCC461 human NSCLC xenograft tumor model in mice", "format": "in vivo", "conditions": "FIG. 1; 20 mg/kg per dose; injections at days 7, 9, 11, 14, 16 and 18 post tumor cell injection", "description": "Compound 22 (prepared according to Example 22) and Compound 28 (prepared according to Example 28) were tested in a HCC461 human NSCLC xenograft tumor model in mice.\nPreparation of Tumor Cells • 1. Hcc461 cells were cultured in complete RPMI medium and excluded any contamination • 2. When cells are 70-80% confluent, medium was removed and cells were washed with serum free media, trypsinized, harvested and washed with serum free media for three times by centrifuge. After final washing, cells were counted and mixed with matrigel at 1:1 ration in volume. Cells were suspended in a volume that 200 PI contains required number of cells per injection.\nPreparation of Mice • 1. Mice should be 4-6 weeks old. • 2. Allow 3-5 days acclimatization period after mice have arrived.\nPreparation of the Injection • 1. Clean and sterilize the inoculation area of the mice with iodine solutions and ethanol. • 2. Take cells with 1-cc syringe. • 3. Inject cells (1×10^7) with 27 gauge needles subcutaneously (s.c.) into the lower flank of the mice. • 4. Therapy was started after 1 week when the tumors have reached an average volume of ˜250 mm^3. • 5. Tumor diameters are measured with digital calipers, and the tumor volume in mm^3 is calculated by the formula: Volume=(width)^2×length/2\nTreatment • 1. Compound 22 and Compound 28 were dissolved in water at concentration of 5 mg/ml and diluted to working solution with D5W before injection. Compound 16 was administered at 20 mg/kg in a mixture of 5% ethanol-5% cremaphor-90% saline. • 2. Each tumor bearing mouse was injected with Compound 22 at 20 mg/kg, Compound 28 at 20 mg/kg or at 10 mg/kg, or Compound 16 at 20 mg/kg via tail vein and continually injected with the same method for a total of 6 times, on days 7, 9, 11, 14, 16, and 18 post tumor-cell injection."}, "[2]": {"assay": "aqueous solubility in de-ionized water", "format": "physicochemical", "conditions": "for solubility: thermodynamic from solid", "description": "Unless otherwise indicated, the solubility measurements described herein are determined by dissolving the test compound in de-ionized (DI) water at 25° C. […] In particular, the compounds provided by Examples 22, 23, 28, 30, 31, 37 and 38 are water soluble."}, "[3]": {"assay": "stability of aqueous solution at room temperature", "format": "physicochemical", "description": "To the combined filtration above was added a stock solution of NaOH in water (14.4 mg/mL, 1 mL, 0.360 mmol). The resulting solution was concentrated to remove most of MeOH at room temperature. Then the residue was diluted with DI water (100 mL). This solution was filtered through a syringe filter (0.45 um) to remove tiny particles. The filtrate was lyophilized to afford the desired compound monosodium salt, 31 (285 mg, 97% yield for two steps)."}, "HCT-116 cells": {"system": "HCT-116 cells", "conditions": "a human colorectal carcinoma line; cited from earlier work"}, "microtubule assembly": {"system": "microtubule assembly", "conditions": "Cruz-Monserrate et al., Mol. Pharmacol., 2003; cited from earlier work"}, "[4]": {"conditions": "de-ionized (DI) water at 25° C., read-out: water solubility"}}, "note": "Like-named read-outs stand apart in the source and are kept apart here.", "data": [{"compound": "CC(C)C1NC(=O)[C@@H](NC(=O)[C@@H](O)C(C)C)Cc2ccc3c(c2)C24C5=C(N=C1O5)c1ncc(o1)-c1c[nH]c5cccc(c15)-c1cccc2c1N[C@H]4O3", "note": "(stereo partly drawn) [Compound 16]", "values": [{"measurement": "tumor free animals", "setting": "[1]", "value": "no tumor free animals"}]}, {"compound": "CC(C)[C@@H]1NC(=O)[C@@H](NC(=O)[C@@H](OP(=O)(O)O)C(C)C)Cc2ccc3c(c2)[C@]24C5=C(N=C1O5)c1ncc(o1)-c1c[nH]c5cccc(c15)-c1cccc2c1NC4O3", "note": "(stereo partly drawn) [Compound 22]", "values": [{"measurement": "solubility", "setting": "[2]; [4]", "value": "> 1000", "unit": "µg/mL"}, {"measurement": "tumor free animals", "setting": "[1]", "value": "no tumor free animals"}, {"measurement": "weight loss in the treated group", "setting": "[1]", "value": "No weight loss"}]}, {"compound": "CC(C)[C@@H]1NC(=O)[C@@H](NC(=O)[C@@H](OP(=O)([O-])O)C(C)C)Cc2ccc3c(c2)[C@]24C5=C(N=C1O5)c1ncc(o1)-c1c[nH]c5cccc(c15)-c1cccc2c1NC4O3.[Na+]", "note": "(stereo partly drawn) [Compound 23]", "values": [{"measurement": "amount shown to dissolve in 1 mL of de-ionized water", "setting": "[2]; 1 mL of de-ionized water", "value": 5, "unit": "mg"}, {"measurement": "solubility", "setting": "[2]; [4]", "value": "> 1000", "unit": "µg/mL"}]}, {"compound": "CC(C)[C@H](O)C(=O)N[C@H]1Cc2ccc3c(c2)[C@]24C5=C(N=C(O5)[C@H](C(C)C)NC1=O)c1ncc(o1)-c1cn(P(=O)(O)O)c5cccc(c15)-c1cccc2c1NC4O3", "note": "(stereo partly drawn) [Compound 28]", "values": [{"measurement": "solubility", "setting": "[2]; [4]", "value": "> 1000", "unit": "µg/mL"}]}, {"compound": "CCC(O)(CC)C(=O)N[C@H]1Cc2ccc3c(c2)[C@]24C5=C(N=C(O5)[C@H](C(C)C)NC1=O)c1ncc(o1)-c1cn(P(=O)(O)O)c5cccc(c15)-c1cccc2c1NC4O3", "note": "(stereo partly drawn) [Compound 30]", "values": [{"measurement": "solubility", "setting": "[2]; [4]", "value": "> 1000", "unit": "µg/mL"}]}, {"compound": "CCC(O)(CC)C(=O)N[C@H]1Cc2ccc3c(c2)[C@]24C5=C(N=C(O5)[C@H](C(C)C)NC1=O)c1ncc(o1)-c1cn(P(=O)([O-])O)c5cccc(c15)-c1cccc2c1NC4O3.[Na+]", "note": "(stereo partly drawn) [Compound 31]", "values": [{"measurement": "solubility", "setting": "[2]; [4]", "value": "> 1000", "unit": "µg/mL"}, {"measurement": "solubility", "setting": "[2]; water, 25 °C, water, read-out: solubility in water", "value": 20000, "unit": "µg/mL"}, {"measurement": "time for which the aqueous solution is stable", "setting": "[3]", "value": "more than 48 hours"}]}, {"compound": "CCC(O)(CC)C(=O)N[C@H]1Cc2ccc3c(c2)C24C5=C(N=C(O5)[C@H](C(C)C)NC1=O)c1ncc(o1)-c1c[nH]c5c(OP(=O)(O)O)ccc(c15)-c1cccc2c1NC4O3", "note": "(stereo partly drawn) [Compound 37]", "values": [{"measurement": "solubility", "setting": "[2]; [4]", "value": "> 1000", "unit": "µg/mL"}]}, {"compound": "CCC(O)(CC)C(=O)N[C@H]1Cc2ccc3c(c2)C24C5=C(N=C(O5)[C@H](C(C)C)NC1=O)c1ncc(o1)-c1c[nH]c5c(OP(=O)([O-])[O-])ccc(c15)-c1cccc2c1NC4O3.[Na+].[Na+]", "note": "(stereo partly drawn) [Compound 38]", "values": [{"measurement": "solubility", "setting": "[2]; [4]", "value": "> 1000", "unit": "µg/mL"}]}, {"compound": "CC(C)[C@H](O)C(=O)NC1Cc2ccc3c(c2)[C@]24C5=C(N=C(O5)[C@H](C(C)C)NC1=O)c1nc(Cl)c(o1)-c1c(Cl)[nH]c5cccc(c15)-c1cccc2c1NC4O3", "note": "(stereo partly drawn) [Diazonamide A]", "values": [{"measurement": "GI50 values (50% growth inhibitory concentration)", "setting": "HCT-116 cells", "value": "less than 15 ng/ml"}, {"measurement": "inhibition of microtubule assembly", "setting": "microtubule assembly", "value": "inhibit microtubule assembly"}]}]}
